Tests used:
[1] = molecular target: T1, Glyceraldehyde-3-phosphate dehydrogenase (GAPDH) (Homo sapiens, UniProt P04406); assay: GAPDH activity ([…] nm) in A2780 crude cell extract after […] min pre-incubation; type: biochemical
T1 construct: endogenous GAPDH in A2780 cell extract

[2] = molecular target: T1, Glyceraldehyde-3-phosphate dehydrogenase (GAPDH); assay: GAPDH activity ([…] nm) in A2780 crude cell extract after […] min pre-incubation; no adduct seen by ESI-MS with rabbit GAPDH; type: biochemical

T1 sequence (P04406 2-335): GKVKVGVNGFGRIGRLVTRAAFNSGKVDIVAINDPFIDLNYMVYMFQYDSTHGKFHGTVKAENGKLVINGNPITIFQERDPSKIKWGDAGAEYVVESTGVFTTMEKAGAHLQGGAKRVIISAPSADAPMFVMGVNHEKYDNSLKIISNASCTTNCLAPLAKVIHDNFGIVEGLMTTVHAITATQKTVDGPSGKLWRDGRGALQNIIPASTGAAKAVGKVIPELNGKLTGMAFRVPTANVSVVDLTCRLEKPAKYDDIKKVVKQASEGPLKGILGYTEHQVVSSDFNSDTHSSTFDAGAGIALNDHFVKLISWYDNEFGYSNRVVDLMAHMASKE

Compound	EC50 [1] [µM]	EC50 [2] [µM]
CCCCn1cc[n+](C)[c]1[Au-][Cl] [compound 1, chlorido (1-butyl-3-methyl-imidazole-2-ylidene) gold(I)]	2.86 ± 0.3	
CCCCn1cc[n+](C)[c]1[AuH][c]1n(CCCC)cc[n+]1C [compound 2, bis(1-butyl-3-methyl-imidazole-2-ylidene) gold(I)]		7.13 ± 0.1

From PMC9135895, “The effects of two gold-N-heterocyclic carbene (NHC) complexes in ovarian cancer cells: a redox proteomic study” (Cancer Chemotherapy and Pharmacology, 2022)
